Test system: tomato
Test: Greenhouse test, pre-plant incorporation (PPI)
Type: in vivo
Conditions: 21 DAT
Method: Green house test for tomato resistance. Similar studies were also conducted in greenhouse with pre-plant incorporation (PPI) of thiazopyr into the soil. During pre-emergence application of thiazopyr, it is possible that cracks in soil may allow seedlings to escape from exposure to thiazopyr that was sprayed on the soil surface. One way to prevent such escapes is to apply thiazopyr with pre-plant incorporation (PPI). In this method of application, thiazopyr is first incorporated into the soil and seeds are sowed directly into that soil. PPI application of thiazopyr can cause the most plant injury and therefore require lower rates of thiazopyr application.
Tomato seeds were planted in 100 cm^2 pots filled with a sterilized silty loam soil (510 g). Seeds were placed on top of soil, and covered with additional soil (135 g) which was premixed with thiazopyr at equivalent use rates of 0, 34, 45, 67, and 140 g/ha. Greenhouse growing conditions were: 29° C. day to 21° C. night with supplemental lighting as needed to maintain 200-900 μE.
In order to be certain that tomato resistance to thiazopyr in the above PE experiment was not due to escapes, a further experiment in the greenhouse using conducted using PPI application. Plants were visually rated at 21 days after treatment (DAT) based on comparison of % growth to untreated plants, and the results are presented in the bar chart in FIG. 6. […] At the 45 g/ha rate, UC82B was severely injured (10% growth) and the transgenics lines minimally injured (90% growth). At the 67 g/ha rate, UC82B plants were dead and the transgenics were stunted at 40 to 50% growth. […] Both #8255 and #8230 lines expressed the pyridine-esterase at 0.05% of total protein. The term `resistance` in all of these examples can also be expressed as a recombinantly acquired tolerance to the applied levels or rates of pyridine herbicide.

COC(=O)c1c(C(F)F)nc(C(F)(F)F)c(C2=NCCS2)c1CC(C)C [thiazopyr]
% growth compared to untreated plants (UC82B control, 34 g/ha PPI): 75% | % growth compared to untreated plants (UC82B control, 45 g/ha PPI): 10% | plant condition (UC82B control, 67 g/ha PPI): dead | % growth compared to untreated plants (transgenic #8255 and #8230, 34 g/ha PPI): 100% | % growth compared to untreated plants (transgenic #8255 and #8230, 45 g/ha PPI): 90%

— patent US6107549A, “Genetically engineered plant resistance to thiazopyr and other pyridine herbicides” (Monsanto Company, priority 1999, dated 2000)
